{"source": "paper PMC11375437", "about": "“Selective labelling of GBA2 in cells with fluorescent β-D-arabinofuranosyl cyclitol aziridines” (Chemical Science, 2024)", "biological_target": "T1, GBA2 (Mus musculus, UniProt Q69ZF3)", "T1 construct": "from tissue; host or cells: mouse brain homogenate", "T1 sequence (Q69ZF3 1-918)": "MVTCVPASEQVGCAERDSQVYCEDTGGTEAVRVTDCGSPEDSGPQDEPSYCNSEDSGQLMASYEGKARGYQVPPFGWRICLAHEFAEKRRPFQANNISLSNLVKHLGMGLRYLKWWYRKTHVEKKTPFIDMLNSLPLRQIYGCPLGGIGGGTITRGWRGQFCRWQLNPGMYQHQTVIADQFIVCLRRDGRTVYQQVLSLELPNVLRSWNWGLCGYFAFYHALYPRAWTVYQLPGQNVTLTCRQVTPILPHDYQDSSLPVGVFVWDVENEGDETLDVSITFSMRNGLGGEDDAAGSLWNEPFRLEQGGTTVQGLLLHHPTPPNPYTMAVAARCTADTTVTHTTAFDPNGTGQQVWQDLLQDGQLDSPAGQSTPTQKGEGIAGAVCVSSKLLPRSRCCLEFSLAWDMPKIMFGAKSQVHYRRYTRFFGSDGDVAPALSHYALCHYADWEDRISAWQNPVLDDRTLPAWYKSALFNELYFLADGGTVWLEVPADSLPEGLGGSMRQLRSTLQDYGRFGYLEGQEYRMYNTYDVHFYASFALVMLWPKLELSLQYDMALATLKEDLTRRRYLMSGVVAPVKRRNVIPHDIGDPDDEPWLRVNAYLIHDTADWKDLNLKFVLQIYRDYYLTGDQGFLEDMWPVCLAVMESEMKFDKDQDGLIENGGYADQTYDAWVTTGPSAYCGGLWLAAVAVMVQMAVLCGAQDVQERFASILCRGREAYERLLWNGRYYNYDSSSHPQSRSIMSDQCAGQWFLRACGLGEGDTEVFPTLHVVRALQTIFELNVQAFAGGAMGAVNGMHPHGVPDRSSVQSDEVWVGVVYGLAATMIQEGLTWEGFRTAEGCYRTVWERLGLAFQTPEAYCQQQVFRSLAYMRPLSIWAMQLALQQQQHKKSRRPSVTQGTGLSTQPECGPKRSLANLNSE", "assay": "Labelling of GBA2 orthologue in mice brain homogenates", "type": "biochemical", "conditions": "1 h at 37 °C; ABP 3 and 7 at 1 μM, ABP 4 and 5 at 2.5 μM", "procedure": "GBA2 orthologs are highly conserved among different species. […] The labelling capability of β-D-Araf aziridine ABPs toward GBA2 orthologs in these species was therefore evaluated. Homogenates of zebrafish larvae or mice brain homogenates were incubated with β-D-Araf ABPs 3–5 or broad-spectrum ABP 7 (Fig. 4).\nFig. 4 Fluorescent gel images of selective labelling of GBA2 orthologues by β-D-Araf aziridine ABPs in different species. Cyclophellitol-aziridine ABP 7 (1 μM) and β-D-Araf ABPs (ABP 3 at 1 μM and ABP 4 and 5 at 2.5 μM) were incubated with homogenates of zebrafish (15 μg total protein) and mice brain (15 μg total protein) for 1 h at 37 °C. […]\nwere transferred to nitrocellulose membrane for western blotting. Ponceau S staining was used to show total protein loading. […]\n2.12 Reactivity of β-D-Araf aziridines towards GBA2 orthologue in other species β-D-Araf aziridine ABP 3-5 or ABP 7 was incubated with homogenates of zebrafish (Danio rerio) larvae or mice brain for 1 h at 37 °C. […] The zebrafish homogenates were passed through a desalting column (in the same way as described for the irreversibility evaluation above) to remove interference from biological pigments when scanning at λEX 473 nm and λEM ≥ 510 nm for BODIPY green fluorescence. […]", "data": [{"smiles": "CN1/C(=C/C=C/C=C/C2=[N+](CCCCCC(=O)NCc3cn(CCCCCCCCN4[C@@H]5[C@H](CO)[C@@H](O)[C@H](O)[C@@H](O)[C@@H]54)nn3)c3ccccc3C2(C)C)C(C)(C)c2ccccc21", "note": "(stereo partly shown) [ABP 7]", "values": [{"measurement": "Labelling selectivity in mice brain homogenates", "value": "show cross-reactivity towards GBA1"}]}]}
